Measurements reported in publication PMC6150239 (Molecules : A Journal of Synthetic Chemistry and Natural …, 2017).

Assays:
[1] = design: method as in PMID 27079428; conditions: cited from earlier work
[2] = Human liver microsome stability assay; assay type: in vitro ADME; conditions: human liver microsomes, 1 μM, 37 °C; CLint = k/P

| SMILES | t1/2 [1] [h] | CLint (intrinsic clearance) [2] [mL/min/mg Protein] |
| --- | --- | --- |
| COc1cc2c(cc1OC)C1CC(=O)C(CC(C)C)CN1CC2 (stereo not drawn) [tetrabenazine] | 4.8 | – |
| C[C@]12CC[C@H]3[C@@H](CCC4=CC(=O)CC[C@@]43C)[C@@H]1CC[C@@H]2O [Testosterone, testosterone, reference compound] | – | 0.0727 |
| [2H]C([2H])([2H])Oc1cc2c(cc1OC([2H])([2H])[2H])C1CC(=O)C(CC(C)C)CN1CC2 (stereo not drawn) [deutetrabenazine] | 8.6 | – |
